Assay results: patent US20060205819A1, “Methods of treatment inflammatory bowel with lxr agonists” (priority 2003, published 2006)
Read-outs that look alike come from different tables or passages of the source. Marks after values point to notes of the source that are not given here.

How the values were obtained:
DSS-induced colitis = DSS-induced colitis in mice, disease activity index (DAI) AUC; format: in vivo, BALB/c mice; conditions: for severity of DSS-induced colitis: p.o.; for AUC (0-12 day) / AUC (3-7 day) / AUC (7-10 day) / AUC (10-12 day): DAI curve AUC, 3% DSS mice, mean +/- SE; for inhibition at 3 mg/kg / inhibition at 10 mg/kg / inhibition at 30 mg/kg: Mus musculus, po, vs DSS + vehicle; for inhibition at 3 mg/kg: 3 mg/kg p.o. b.i.d.; for inhibition at 10 mg/kg: 10 mg/kg p.o. b.i.d.; for inhibition at 30 mg/kg: 30 mg/kg p.o. b.i.d.
Experimental: Female, 10-week-old BALB/c mice (Charles River Japan) were used in this study. Colitis was induced by providing drinking water containing 3% dextran sulfate sodium (DSS, ICN Biomedicals Inc., M.W.=36,000-50,000) for 5 days. The administration of DSS was discontinued on day 5, and mice were given tap water alone for 7 days until on day 12.
The disease activity index (DAI) was determined in all animals, by scoring body weight, stool consistency and rectal bleeding as described by Murthy, S. N. S. (Digestive Diseases and Sciences, 38(9) p. 1722-1734(1993)). Severity of colitis was evaluated by area under the curve (AUC) calculated based on DAI curve ranged from day 3 to day 7 (AUC (3-7 day)), from day 7 to day 10 (AUC (7-10 day)), from day 10 to day 12 (AUC (10-12 day)) and from day 0 to day 12 (AUC (0-12 day)).
Ten mice were used in each group. Compound IIa and Compound Ia were suspended in 0.5% methylcellulose (MC) solution. Compound IIa 3 or 10 or 30 mg/kg or its vehicle (0.5% MC solution) was administered orally twice a day for 12 days from day 0. Compound Ia at 50 mg/kg was administered orally once a day for 12 days from day 0. The experimental groups were set up as follows:
• 3% DSS+vehicle (0.5% MC solution) 3% DSS+Compound IIa (3 mg/kg) 3% DSS+Compound IIa (10 mg/kg) 3% DSS+Compound IIa (30 mg/kg) 3% DSS+Compound Ia (50 mg/kg) * Mice which received tap water without DSS.

LXRβ protein = target: T1, LXRβ protein (Homo sapiens, UniProt P55055); assay: LXRβ / SRC-1 peptide fluorescence assay (streptavidin-APC / Europium); format: biochemical; conditions: 1 μM; over a background reading of 10000 fluorescence units
T1 sequence (P55055 1-460): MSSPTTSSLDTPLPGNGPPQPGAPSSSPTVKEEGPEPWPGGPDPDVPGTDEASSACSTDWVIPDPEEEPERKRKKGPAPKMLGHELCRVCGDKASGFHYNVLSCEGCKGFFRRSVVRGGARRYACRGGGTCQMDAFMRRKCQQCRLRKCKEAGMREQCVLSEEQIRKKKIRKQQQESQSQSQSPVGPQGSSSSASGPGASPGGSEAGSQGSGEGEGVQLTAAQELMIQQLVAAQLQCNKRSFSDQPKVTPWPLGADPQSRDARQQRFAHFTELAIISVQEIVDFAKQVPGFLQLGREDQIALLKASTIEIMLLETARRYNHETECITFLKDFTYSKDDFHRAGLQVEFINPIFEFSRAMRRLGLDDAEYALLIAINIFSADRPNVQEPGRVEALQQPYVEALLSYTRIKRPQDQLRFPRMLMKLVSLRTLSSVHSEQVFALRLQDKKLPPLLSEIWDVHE
Experimental: Other LXR agonists may be identified by assays such as those described in the above referenced patent applications, for example, the assays described in Examples 1 and 2 of PCT/US01/27622. Biotinylated LXRβ protein was incubated for 20-25 minutes at a concentration of 25 nM in assay buffer (50 mM KCl, 50 mM Tris-pH8, 0.1 mg/ml FAF-BSA, 10 mM DTT) with equimolar amounts of streptavidin-AlloPhycoCyanin (APC, Molecular Probes). At the same time, the biotinylated peptide comprising amino acids 675-699 of SRC-1 ([…]-CONH2) (SEQ ID NO: 5) at a concentration of 25 nM was incubated in assay buffer with a […] of streptavidin-labelled Europium (Wallac) for 20-25 minutes. After the initial incubations are completed, a 10 molar excess (250 nM) of cold biotin was added to each of the solutions to block the unattached streptavidin reagents. After 20 min at room temp, the solutions were mixed yielding a concentration of 12.5 nM for the dye-labelled LXRβ protein and SRC-1 peptide.
80 μL of the protein/peptide mixture was added to each well of an assay plate containing 20 μL of test compound. […] The plates were incubated at room temp in the dark for 4-12 hours and then counted on a Wallac Victor fluorescent plate reader. In this assay 1 μM 24(S), 25-epoxycholesterol gave a reading of 20000 fluorescence units over a background reading of 10000 fluorescence units. […]

[1] = read-out: Inhibition (%) of AUC (0-12 day)
[2] = read-out: Inhibition (%) of AUC (3-7 day)
[3] = read-out: Inhibition (%) of AUC (7-10 day)
[4] = read-out: Inhibition (%) of AUC (10-12 day)

O=S(=O)(c1ccccc1)N(CC(F)(F)F)c1ccc(C(O)(C(F)(F)F)C(F)(F)F)cc1 [Compound Ia]
severity of DSS-induced colitis (DSS-induced colitis; 50 mg/kg, q.d., significant lower AUC (3-7 day) and AUC (0-12 day) compared with vehicle-treated DSS-fed mice): inhibited the severity of DSS-induced colitis
AUC (0-12 day) (DSS-induced colitis; 50 mg/kg p.o. q.d. 12 days): 12.33 +/− 1.40*
AUC (3-7 day) (DSS-induced colitis; 50 mg/kg p.o. q.d. 12 days): 4.80 +/− 0.38**
AUC (7-10 day) (DSS-induced colitis; 50 mg/kg p.o. q.d. 12 days): 4.25 +/− 0.72
AUC (10-12 day) (DSS-induced colitis; 50 mg/kg p.o. q.d. 12 days): 1.98 +/− 0.45

O=C(O)Cc1cccc(OCCCN(Cc2cccc(C(F)(F)F)c2Cl)CC(c2ccccc2)c2ccccc2)c1 [Compound IIa, 2-(3-{3-[[2-Chloro-3-(trifluoromethyl)benzyl](2,2-diphenylethyl)amino]propoxy}-phenyl)acetic acid]
severity of DSS-induced colitis (DSS-induced colitis; 3, 10 and 30 mg/kg, b.i.d., significantly lower AUC compared with vehicle-treated DSS-fed mice): suppressed the severity of DSS-induced colitis
AUC (0-12 day) (DSS-induced colitis; 3 mg/kg p.o. b.i.d. 12 days): 14.02 +/− 1.56
AUC (3-7 day) (DSS-induced colitis; 3 mg/kg p.o. b.i.d. 12 days): 4.93 +/− 0.38**
AUC (7-10 day) (DSS-induced colitis; 3 mg/kg p.o. b.i.d. 12 days): 5.05 +/− 0.75
AUC (10-12 day) (DSS-induced colitis; 3 mg/kg p.o. b.i.d. 12 days): 2.73 +/− 0.55
AUC (0-12 day) (DSS-induced colitis; 10 mg/kg p.o. b.i.d. 12 days): 11.25 +/− 1.42**
AUC (3-7 day) (DSS-induced colitis; 10 mg/kg p.o. b.i.d. 12 days): 4.60 +/− 0.40**
AUC (7-10 day) (DSS-induced colitis; 10 mg/kg p.o. b.i.d. 12 days): 3.70 +/− 0.62*
AUC (10-12 day) (DSS-induced colitis; 10 mg/kg p.o. b.i.d. 12 days): 1.70 +/− 0.37
AUC (0-12 day) (DSS-induced colitis; 30 mg/kg p.o. b.i.d. 12 days): 11.70 +/− 1.32*
AUC (3-7 day) (DSS-induced colitis; 30 mg/kg p.o. b.i.d. 12 days): 4.70 +/− 0.36**
AUC (7-10 day) (DSS-induced colitis; 30 mg/kg p.o. b.i.d. 12 days): 3.94 +/− 0.62
AUC (10-12 day) (DSS-induced colitis; 30 mg/kg p.o. b.i.d. 12 days): 1.67 +/− 0.44
inhibition at 3 mg/kg (DSS-induced colitis; [1]): 22%
inhibition at 3 mg/kg (DSS-induced colitis; [2]): 28.2%
inhibition at 3 mg/kg (DSS-induced colitis; [3]): 20.5%
inhibition at 3 mg/kg (DSS-induced colitis; [4]): 14.7%
inhibition at 10 mg/kg (DSS-induced colitis; [1]): 37.4%
inhibition at 10 mg/kg (DSS-induced colitis; [2]): 33%
inhibition at 10 mg/kg (DSS-induced colitis; [3]): 41.7%
inhibition at 10 mg/kg (DSS-induced colitis; [4]): 46.9%
inhibition at 30 mg/kg (DSS-induced colitis; [1]): 34.9%
inhibition at 30 mg/kg (DSS-induced colitis; [2]): 31.6%
inhibition at 30 mg/kg (DSS-induced colitis; [3]): 38%
inhibition at 30 mg/kg (DSS-induced colitis; [4]): 47.8%

C[C@H](CC[C@@H]1OC1(C)C)[C@H]1CC[C@H]2[C@@H]3CC=C4C[C@@H](O)CC[C@]4(C)[C@H]3CC[C@]12C [24(S), 25-epoxycholesterol]
reading (LXRβ protein): 20000 fluorescence units
